Laboratory results published in patent publication US20240252456A1, “ORAL COMPOSITION, SKIN COSMETIC AND HAIR COSMETIC” (MARUZEN PHARMACEUTICALS CO., LTD., priority 2021, published 2024).

Experiments:
[1] = tested on: Normal human dermal fibroblasts (NB1RGB); assay: Hyaluronic acid production promotive action test; assay type: cell-based; conditions: 3 days, A/B×100 vs no sample
Method: Normal human dermal fibroblasts (NB1RGB) were cultured using Dulbecco's modified Eagle's medium (DMEM) containing 10% FBS, and then the cells were collected by a trypsin treatment. The collected cells were diluted with DMEM containing 0.25% FBS to a cell density of 1.6×10^5 cells/mL, then seeded with 100 μL per well in a 96-well plate, and cultured overnight.
After the culturing was completed, 100 μL of each of test samples (Samples 1 and 2, see Table 9 below for final concentrations) dissolved in DMEM containing 0.25% FBS was added to each well, and culturing was performed for 3 days. As a control, culturing was performed in the same manner using DMEM containing 0.25% FBS to which no sample was added. After the culturing was completed, the amount of hyaluronic acid in the medium of each well was measured by a sandwich method using hyaluronic acid binding protein (HABP). From the obtained results, the hyaluronic acid production promotion rate (%) was calculated using the following equation.
Hyaluronic acid production promotion rate (%)=A/B×100
Terms in the equation represent the following respective ones. • A: Hyaluronic acid amount with test sample addition • B: Hyaluronic acid amount without sample addition

[2] = tested on: OCLN mRNA; assay: Occludin (OCLN) mRNA expression promotive action test; assay type: cell-based, human; conditions: NHEK, 24 hours, corrected with GAPDH
Method: (§1) Normal human neonatal epidermal keratinocytes (NHEK) were precultured using normal human epidermal keratinocyte growth medium (KGM), and the cells were collected by a trypsin treatment. The collected cells were diluted with KGM to a cell density of 15×10^4 cells/mL, then seeded with 2 mL portions in a 6-well plate (30×10^4 cells/well), and cultured overnight under conditions of 37° C. and 5% CO2. After culturing, the medium was replaced with normal human epidermal keratinocyte basal medium (KBM, the above KGM without addition of growth additives (hEGF, BPE, insulin, antibacterial agents, hydrocortisone)), and culturing was further performed for 24 hours.
After culturing for 24 hours, the medium was removed, and 2 mL of each of test samples (Samples 1 and 3, see Table 20 below for final concentrations) dissolved in KBM was added to each well, and culturing was performed under conditions of 37° C. and 5% CO2 for 24 hours. As a control, culturing was performed in the same manner using KBM to which no sample was added. After culturing, the medium was removed, total RNA was extracted using ISOGEN II (available from NIPPON GENE CO., LTD.), each RNA amount was measured using a spectrophotometer, and the total RNA was prepared so as to be 150 ng/μL.
For OCLN and GAPDH as an internal standard, the expression levels of mRNA were measured using the above total RNA as a template. Detection was performed through a two-step real-time RT-PCR reaction using a real-time PCR device, Thermal Cycler Dice Real Time System III (available from Takara Bio Inc.), with PrimeScript™ RT Master Mix (Perfect Real Time) (available from Takara Bio Inc.) and TB Green® Fast qPCR Mix (available from Takara Bio Inc.). Primers available from Takara Bio Inc. were used. The expression level of OCLN mRNA was obtained as a value corrected with a value of GAPDH based on total RNA preparations prepared from cells cultured “with test sample addition” and “without sample addition.” From the obtained values, the OCLN mRNA expression promotion rate (%) was calculated using the following equation. […]

[3] = tested on: SPT mRNA; assay: Serine palmitoyltransferase (SPT) mRNA expression promotive action test; assay type: cell-based, human; conditions: NHEK, 24 hours, corrected with GAPDH
Method: as §1
After culturing for 24 hours, the medium was removed, and 2 mL of the test sample (Sample 1, see Table 16 below for final concentration) dissolved in KBM was added to each well, and culturing was performed under conditions of 37° C. and 5% CO2 for 24 hours. As a control, culturing was performed in the same manner using KBM to which no sample was added. After culturing, the medium was removed, total RNA was extracted using ISOGEN II (available from NIPPON GENE CO., LTD.), each RNA amount was measured using a spectrophotometer, and the total RNA was prepared so as to be 150 ng/μL.
For SPT and GAPDH as an internal standard, the expression levels of mRNA were measured using the above total RNA as a template. […]

[4] = tested on: Normal human dermal fibroblasts (NB1RGB); assay: Elastin production promotive action test; assay type: cell-based; conditions: 5 days
Method: Normal human dermal fibroblasts (NB1RGB) were cultured using Dulbecco's modified Eagle's medium (DMEM) containing 10% FBS, and then the cells were collected by a trypsin treatment. The collected cells were diluted with the above medium to a cell density of 2.2×10^5 cells/mL, then seeded with 100 μL per well in a 96-well microplate, and cultured overnight.
After the culturing was completed, the medium was removed, and 150 μL of each of test samples (Samples 2 and 3, see Table 7 below for final concentrations) dissolved in DMEM containing 0.25% FBS was added to each well, and culturing was performed for 5 days. As a control, culturing was performed in the same manner using DMEM containing 0.25% FBS to which no sample was added. After the culturing was completed, the supernatant was recovered, and the amount of elastin released in the culture supernatant was measured by ELISA method. From the measurement results, the elastin production promotion rate (%) was calculated using the following equation.
Terms in the equation represent the following respective ones. • A: Elastin amount with test sample addition • B: Elastin amount without sample addition

**Q.** What does the source list for `O=C(O)CCc1ccc(O)c(O)c1` [Sample 1, 3,4-Dihydroxyhydrocinnamic acid]?
**A.** Hyaluronic acid production promotion rate ([1]; 25 μmol/L): 124.2%; OCLN mRNA expression promotion rate ([2]; 25 μmol/L): 209.9%; OCLN mRNA expression promotion rate ([2]; 100 μmol/L): 557.3%; SPT mRNA expression promotion rate ([3]; 25 μmol/L): 114.6%; SPT mRNA expression promotion rate ([3]; 100 μmol/L): 149.9%

**Q.** Which “Hyaluronic acid production promotion rate” value ([1]; 50 μmol/L) does the source give for `O=C(O)CCc1ccc(O)cc1` [Sample 2, 3-(4-Hydroxyphenyl)propionic acid] here?
**A.** Its value is 121.8%.

**Q.** And the “Hyaluronic acid production promotion rate” value ([1]; 100 μmol/L)?
**A.** The value was 119.3%.

**Q.** And the “Hyaluronic acid production promotion rate” value ([1]; 200 μmol/L)?
**A.** Its value is 111.7%.

**Q.** And the “Elastin production promotion rate” value ([4]; 15.6 μmol/L)?
**A.** Its value is 145.4%.

**Q.** And the “Elastin production promotion rate” value ([4]; 62.5 μmol/L)?
**A.** The value was 147.6%.

**Q.** And the “Elastin production promotion rate” value ([4]; 250 μmol/L)?
**A.** Its value is 189.3%.

**Q.** Which “OCLN mRNA expression promotion rate” value ([2]; 25 μmol/L) does the source give for `O=C(O)CCc1ccccc1` [Sample 3, 3-phenylpropionic acid] here?
**A.** Its value is 141.5%.

**Q.** What about the “Elastin production promotion rate” value ([4]; 62.5 μmol/L) of the same compound?
**A.** Its value is 174.0%.

**Q.** What about the “Elastin production promotion rate” value ([4]; 250 μmol/L) of the same compound?
**A.** Its value is 239.0%.
